Assay results published in patent US12005044B1, “Treatment of autism spectrum disorders with ergothioneine, selenoneine, or combinations thereof” (Autism Therapeutics Inc., priority 2022, dated 2024).

Experiments:
[1] = test system: ASD individuals; assay: CARS-2 scoring of ASD individuals before and after three months of ET dietary supplement; format: in vivo, human; design: key to CARS-2 Total scores, After treatment / average of total CARS-2 score after treatment: sum of 15 items, 15 (normal) to 60; ≥30 = ASD
Source text: Examples are described below for using ET to treat ASD-affected individuals. Each of the four individuals identified in the examples has various severity of ASD. The examples set forth herein are directed to the use of ET dietary supplement for a period of three months.
The examples below therefore adopted the CARS-2 system to evaluate ET treatment effects in four ASD individuals.
To obtain a CARS-2 score, each individual is rated on a scale of 1 (normal) to 4 (severely abnormal) with respect to each of the 15 criteria (“relationship to others”, “imitation”, “emotional response”, “body use”, “object use”, “adaptation to change”, “visual response”, “listening response”, “taste-smell-touch responses”, “fear and nervousness”, “verbal communication”, “non-verbal communication”, “activity level”, “level and reliability of intellectual responses”, and “general impressions”). A total score is obtained by combining all of 15 separate scores, ranging from 15 to 60. A score of 15 is normal. Scores below 30 are considered very mild or non-autistic; 30-36.5 are considered mild to moderate ASD and scores greater than 36.5 are considered severe ASD. The scoring can be provided by either primary care giver or the parents.
Method of treatment: ET (2 mg/kg bw per day, 54 mg daily) powder is dissolved in drinking water (200 mL). The individual is treated by ET for three months. ET has no color, no taste when dissolved in water.
Method of treatment: ET (2 mg/kg bw per day, 42 mg daily) powder is dissolved in drinking water (200 mL). The individual is treated by ET for three months.
Method of treatment: ET (1 mg/kg bw per day, 74 mg daily) powder is dissolved in drinking water (200 mL). The individual is treated by ET for three months.

[2] = EFSA Panel; cited from earlier work
[3] = Example 1, child, ET 2 mg/kg bw per day, three months, before treatment 1.5
[4] = Example 1, child, ET 2 mg/kg bw per day, three months, before treatment 2
[5] = Example 1, child, ET 2 mg/kg bw per day, three months, before treatment 2.5
[6] = Example 1, child, ET 2 mg/kg bw per day, three months, before treatment 3
[7] = Example 2, child, ET 2 mg/kg bw per day, three months, before treatment 1
[8] = Example 2, child, ET 2 mg/kg bw per day, three months, before treatment 2
[9] = Example 2, child, ET 2 mg/kg bw per day, three months, before treatment 3
[10] = Example 3, child (ASD, Asperger's Syndrome), ET 2 mg/kg bw per day, three months, before treatment 1
[11] = Example 3, child (ASD, Asperger's Syndrome), ET 2 mg/kg bw per day, three months, before treatment 1.5
[12] = Example 3, child (ASD, Asperger's Syndrome), ET 2 mg/kg bw per day, three months, before treatment 2.5
[13] = Example 4, person, ET 1 mg/kg bw per day, three months, before treatment 1
[14] = Example 4, person, ET 1 mg/kg bw per day, three months, before treatment 2
[15] = Example 4, person, ET 1 mg/kg bw per day, three months, before treatment 3
[16] = Example 4, person, ET 1 mg/kg bw per day, three months, before treatment 4

C[N+](C)(C)[C@@H](Cc1c[nH]c(=S)[nH]1)C(=O)O [ET, ergothioneine]
CARS-2 Activity level, After treatment [1, 3]: 1.5
CARS-2 Adaptation to change, After treatment [1, 3]: 1.5
CARS-2 Body use, After treatment [1, 3]: 1.5
CARS-2 Fear and nervousness, After treatment [1, 4]: 1
CARS-2 Imitation, After treatment [1, 4]: 2
CARS-2 Listening response, After treatment [1, 4]: 2
CARS-2 Non-verbal communication, After treatment [1, 4]: 2
CARS-2 Object use, After treatment [1, 4]: 2
CARS-2 Taste-smell-touch responses, After treatment [1, 4]: 2
CARS-2 Emotional response, After treatment [1, 5]: 2
CARS-2 Relationship to others, After treatment [1, 5]: 2
CARS-2 Visual response, After treatment [1, 5]: 2.5
CARS-2 General impressions, After treatment [1, 6]: 2.5
CARS-2 Level and consistency of intellectual response, After treatment [1, 6]: 2
CARS-2 Verbal communication, After treatment [1, 6]: 2
CARS-2 Total scores, After treatment ([1]; Example 1, child, ET 2 mg/kg bw per day, three months, before treatment 33): 28.5
CARS-2 Fear and nervousness, After treatment [1, 7]: 1
CARS-2 Taste-smell-touch responses, After treatment [1, 7]: 1
CARS-2 Adaptation to change, After treatment [1, 8]: 2
CARS-2 Body use, After treatment [1, 8]: 2
CARS-2 Emotional response, After treatment [1, 8]: 2
CARS-2 General impressions, After treatment [1, 8]: 1.5
CARS-2 Imitation, After treatment [1, 8]: 2
CARS-2 Level and consistency of intellectual response, After treatment [1, 8]: 2
CARS-2 Listening response, After treatment [1, 8]: 1
CARS-2 Object use, After treatment [1, 8]: 2
CARS-2 Visual response, After treatment [1, 8]: 2
CARS-2 Activity level, After treatment [1, 9]: 3
CARS-2 Non-verbal communication, After treatment [1, 9]: 2
CARS-2 Relationship to others, After treatment [1, 9]: 2
CARS-2 Verbal communication, After treatment [1, 9]: 2
CARS-2 Total scores, After treatment ([1]; Example 2, child, ET 2 mg/kg bw per day, three months, before treatment 32): 27.5
CARS-2 Adaptation to change, After treatment [1, 10]: 1
CARS-2 Body use, After treatment [1, 10]: 1
CARS-2 Emotional response, After treatment [1, 10]: 1
CARS-2 Level and consistency of intellectual response, After treatment [1, 10]: 1
CARS-2 Listening response, After treatment [1, 10]: 1
CARS-2 Non-verbal communication, After treatment [1, 10]: 1
CARS-2 Object use, After treatment [1, 10]: 1
CARS-2 Taste-smell-touch responses, After treatment [1, 10]: 1
CARS-2 Verbal communication, After treatment [1, 10]: 1
CARS-2 Fear and nervousness, After treatment [1, 11]: 1
CARS-2 General impressions, After treatment [1, 11]: 1.5
CARS-2 Visual response, After treatment [1, 11]: 1
CARS-2 Relationship to others, After treatment ([1]; Example 3, child (ASD, Asperger's Syndrome), ET 2 mg/kg bw per day, three months, before treatment 2): 1
CARS-2 Activity level, After treatment [1, 12]: 3
CARS-2 Imitation, After treatment [1, 12]: 2.5
CARS-2 Total scores, After treatment ([1]; Example 3, child (ASD, Asperger's Syndrome), ET 2 mg/kg bw per day, three months, before treatment 20.5): 19
diagnosis after ET treatment ([1]; Example 3, child, ET 2 mg/kg bw per day, three months): no longer ASD
CARS-2 Adaptation to change, After treatment [1, 13]: 1
CARS-2 Body use, After treatment [1, 13]: 1
CARS-2 Emotional response, After treatment [1, 13]: 1
CARS-2 Fear and nervousness, After treatment [1, 14]: 1
CARS-2 Non-verbal communication, After treatment [1, 14]: 2
CARS-2 Relationship to others, After treatment [1, 14]: 2
CARS-2 Visual response, After treatment [1, 14]: 2
CARS-2 General impressions, After treatment [1, 15]: 2
CARS-2 Imitation, After treatment [1, 15]: 3
CARS-2 Object use, After treatment [1, 15]: 3
CARS-2 Taste-smell-touch responses, After treatment [1, 15]: 2.5
CARS-2 Verbal communication, After treatment [1, 15]: 2
CARS-2 Listening response, After treatment ([1]; Example 4, person, ET 1 mg/kg bw per day, three months, before treatment 3.5): 3
CARS-2 Activity level, After treatment [1, 16]: 4
CARS-2 Level and consistency of intellectual response, After treatment [1, 16]: 3
CARS-2 Total scores, After treatment ([1]; Example 4, person, ET 1 mg/kg bw per day, three months, before treatment 37.5): 31.5
average of total CARS-2 score after treatment ([1]; examples 1-4, four individuals, decreased from 30.75, T=4.37, P=0.022 by paired student t-test): 26.62
maximum allowed ET dosage based on the no-observed-adverse-effect level (NOAEL) [2]: 800 mg/kg bw per day
